In ChEMBL document CHEMBL3860060, “Discovery and Optimization of 1-Phenoxy-2-aminoindanes as Potent, Selective, and Orally Bioavailable Inhibitors of the Na+/H+ Exchanger Type 3 (NHE3)” (J Med Chem, 2016):

Assays:
[1] = biological target: T1, Sodium/hydrogen exchanger 3 (Homo sapiens, UniProt P48764); experiment: Inhibition of human NHE3 expressed in LAP1 cell assessed as intracellular pH recovery measured for 2 mins by CECF-AM dye based FLIPR assay
T1 sequence (P48764 whole entry): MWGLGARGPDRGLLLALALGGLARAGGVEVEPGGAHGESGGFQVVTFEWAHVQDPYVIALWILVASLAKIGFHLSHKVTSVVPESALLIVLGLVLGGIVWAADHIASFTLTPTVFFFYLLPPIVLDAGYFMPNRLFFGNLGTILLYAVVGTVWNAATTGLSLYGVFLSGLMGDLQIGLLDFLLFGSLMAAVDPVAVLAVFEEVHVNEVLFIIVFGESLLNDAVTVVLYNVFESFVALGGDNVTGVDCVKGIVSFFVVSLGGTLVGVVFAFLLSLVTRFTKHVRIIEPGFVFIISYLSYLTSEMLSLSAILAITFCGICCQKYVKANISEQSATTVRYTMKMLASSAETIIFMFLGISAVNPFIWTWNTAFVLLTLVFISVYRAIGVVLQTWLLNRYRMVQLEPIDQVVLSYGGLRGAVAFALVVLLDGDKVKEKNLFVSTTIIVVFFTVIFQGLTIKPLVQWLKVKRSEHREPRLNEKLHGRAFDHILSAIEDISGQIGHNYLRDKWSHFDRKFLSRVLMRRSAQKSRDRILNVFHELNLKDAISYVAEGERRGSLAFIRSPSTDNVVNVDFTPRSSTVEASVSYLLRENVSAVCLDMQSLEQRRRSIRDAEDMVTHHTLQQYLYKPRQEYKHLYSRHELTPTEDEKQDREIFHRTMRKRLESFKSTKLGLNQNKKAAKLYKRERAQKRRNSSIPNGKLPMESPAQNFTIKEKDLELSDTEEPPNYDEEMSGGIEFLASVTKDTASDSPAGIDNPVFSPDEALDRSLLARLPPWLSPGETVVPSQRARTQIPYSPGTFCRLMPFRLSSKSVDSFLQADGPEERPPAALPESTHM

[2] = Permeability in human Caco2/TC7 cells assessed as total flux at 20 uM incubated for 2 hrs by LC-MS/MS method; assay type: ADME, cell-based; details: Caco-2, read-out: permeability
[3] = biological target: Cytochrome P450 2D6 (Homo sapiens, UniProt P10635)
Chain of Cytochrome P450 2D6 (P10635 whole entry): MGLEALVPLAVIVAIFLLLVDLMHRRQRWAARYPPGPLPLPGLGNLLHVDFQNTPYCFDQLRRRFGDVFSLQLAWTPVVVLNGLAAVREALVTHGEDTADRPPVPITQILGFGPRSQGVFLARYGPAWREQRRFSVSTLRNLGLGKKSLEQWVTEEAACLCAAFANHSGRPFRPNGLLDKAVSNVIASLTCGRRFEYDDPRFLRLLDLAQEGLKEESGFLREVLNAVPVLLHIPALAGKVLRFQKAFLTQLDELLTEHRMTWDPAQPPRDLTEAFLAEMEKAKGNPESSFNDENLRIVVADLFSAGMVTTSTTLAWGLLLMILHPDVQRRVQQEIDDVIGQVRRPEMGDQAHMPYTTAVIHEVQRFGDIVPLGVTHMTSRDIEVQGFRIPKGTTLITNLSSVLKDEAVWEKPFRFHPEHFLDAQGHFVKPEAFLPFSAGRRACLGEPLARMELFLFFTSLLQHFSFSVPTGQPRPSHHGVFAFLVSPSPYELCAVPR
Description: Inhibition of CYP2D6 in pooled human hepatic microsomes using dextromethorphan substrate in presence of NADPH

Structure (SMILES)	IC50 [1]	Papp at 2 h, 20 µM [2]	IC50 [3]
Cc1nnc(C)n1-c1ccc(O[C@H]2c3ccccc3C[C@@H]2N2CCCC2)c(Cl)c1	78 nM	6.7 ×10⁻⁶ cm/s	730 nM
CN1CCCN([C@H]2Cc3c(Cl)cc(Cl)cc3[C@@H]2Oc2ccc(S(C)(=O)=O)cc2)CC1	93 nM	6.4 ×10⁻⁶ cm/s	< 300 nM
CS(=O)(=O)c1ccc(O[C@H]2c3cc(Cl)c(Cl)cc3C[C@@H]2N2CCCNCC2)cc1 (racemic)	6060 nM		
CS(=O)(=O)c1ccc(O[C@H]2c3ccccc3C[C@@H]2N2CCCC2)c(Cl)c1Cl	540 nM	19.2 ×10⁻⁶ cm/s	
O=c1[nH]ccn1-c1cccc(O[C@H]2c3ccccc3C[C@@H]2N2CCCC2)c1	281 nM	9.8 ×10⁻⁶ cm/s	3800 nM
N[C@@H]1CCCN([C@H]2Cc3c(Cl)cc(Cl)cc3[C@@H]2Oc2ccc(S(N)(=O)=O)c(Cl)c2Cl)C1	0.2 nM	0.6 ×10⁻⁶ cm/s	1500 nM
CN(C)CCCN(C)[C@H]1Cc2c(Cl)cc(Cl)cc2[C@@H]1Oc1ccc(S(C)(=O)=O)cc1	48 nM		
CS(=O)(=O)c1ccc(O[C@H]2c3cc(Cl)cc(Cl)c3C[C@@H]2N2CC(O)C2)cc1	1640 nM		
CC(=O)Nc1cc(O[C@H]2c3ccccc3C[C@@H]2N2CCCC2)ccn1	4530 nM		
Cc1nnc(C2CC2)n1-c1ccc(O[C@H]2c3ccccc3C[C@@H]2N2CCCC2)cc1	272 nM		
O=C1CCC(=O)N1c1cccc(O[C@H]2c3ccccc3C[C@@H]2N2CCCC2)c1	2960 nM		
CS(=O)(=O)c1ccc(O[C@H]2c3cc(Cl)cc(Cl)c3C[C@@H]2N2CC[C@@H](O)C2)cc1	588 nM	28.6 ×10⁻⁶ cm/s	2400 nM
CS(=O)(=O)c1ccc(O[C@H]2c3cc(Cl)cc(Cl)c3C[C@@H]2N2CCCNCC2)cc1	6 nM	1.6 ×10⁻⁶ cm/s	< 300 nM
CS(=O)(=O)c1ccc(O[C@H]2c3c(ccc(Cl)c3Cl)C[C@@H]2N2CCCNCC2)cc1	43 nM		
CN1C[C@@H]2CN([C@H]3Cc4c(Cl)cc(Cl)cc4[C@@H]3Oc3ccc(S(C)(=O)=O)cc3)C[C@@H]2C1	241 nM	6 ×10⁻⁶ cm/s	< 300 nM
CS(=O)(=O)c1ccc(OC2c3cc(Cl)cc(Cl)c3CC2N2C[C@H]3CNC[C@H]3C2)cc1 (single isomer, unassigned)	28 nM	0.07 ×10⁻⁶ cm/s	900 nM
COCCN1CCCN([C@H]2Cc3c(Cl)cc(Cl)cc3[C@@H]2Oc2ccc(S(C)(=O)=O)cc2)CC1	64 nM	11 ×10⁻⁶ cm/s	< 300 nM
NC(=O)Nc1cccc(O[C@H]2c3ccccc3C[C@@H]2N2CCC[C@@H](N)C2)c1	330 nM	0.04 ×10⁻⁶ cm/s	8600 nM
Cc1nnc(C)n1-c1ccc(O[C@H]2c3cc(Cl)ccc3C[C@@H]2N2CCCC2)c(Cl)c1	94 nM	16.2 ×10⁻⁶ cm/s	2500 nM

Structure (SMILES)	IC50 [1]	Papp at 2 h, 20 µM [2]	IC50 [3]
CC(=O)Nc1cccc(O[C@H]2c3ccccc3C[C@@H]2N2CCC[C@@H](N)C2)c1	440 nM	0.03 ×10⁻⁶ cm/s	5100 nM
CS(=O)(=O)c1ccc(O[C@H]2c3cc(Cl)cc(Cl)c3C[C@@H]2N2CC[C@@H](F)C2)cc1	166 nM		
CS(=O)(=O)c1ccc(O[C@H]2c3ccccc3C[C@@H]2N2CCNCC2)cc1	6680 nM		
CCN(CC)C(=O)c1ccc(O[C@H]2c3ccccc3C[C@@H]2N2CCCC2)cc1	2070 nM		
O=C1CCCN1c1cccc(O[C@H]2c3ccccc3C[C@@H]2N2CCCC2)c1	3520 nM		
CS(=O)(=O)c1ccc(O[C@H]2c3cc(Cl)cc(Cl)c3C[C@@H]2N2CCC[C@@H](NCCF)C2)cc1	56 nM	10.5 ×10⁻⁶ cm/s	< 300 nM
c1ccc2c(c1)C[C@H](N1CCCC1)[C@H]2Oc1cccc2cccnc12	9520 nM		
Cn1ccn(-c2cccc(O[C@H]3c4ccccc4C[C@@H]3N3CCCC3)c2)c1=O	197 nM	9.8 ×10⁻⁶ cm/s	< 300 nM
Cc1nncn1-c1ccc(O[C@H]2c3ccccc3C[C@@H]2N2CCCC2)cc1	640 nM		
O=C1OCc2cc(O[C@H]3c4ccccc4C[C@@H]3N3CCCC3)ccc21	2440 nM		
CN(C)CCN(C)[C@H]1Cc2c(Cl)cc(Cl)cc2[C@@H]1Oc1ccc(S(C)(=O)=O)cc1	20 nM	8 ×10⁻⁶ cm/s	< 300 nM
CN1CCN([C@H]2Cc3c(Cl)cc(Cl)cc3[C@@H]2Oc2ccc(S(C)(=O)=O)cc2)CC1	4040 nM		
CS(=O)(=O)c1ccc(O[C@H]2c3cc(Cl)cc(F)c3C[C@@H]2N2CCNCC2)cc1 (racemic)	168 nM		
NS(=O)(=O)c1ccc(O[C@H]2c3ccccc3C[C@@H]2N2CCCC2)cc1	500 nM		
CS(=O)(=O)c1ccc(O[C@H]2c3cc(Cl)ccc3C[C@@H]2N2CCNCC2)cc1 (racemic)	540 nM		
CS(=O)(=O)c1ccc(O[C@H]2c3ccccc3C[C@@H]2N2CCCC2)cc1	572 nM	21.5 ×10⁻⁶ cm/s	< 300 nM
CS(=O)(=O)c1ccc(O[C@H]2c3cc(Cl)cc(Cl)c3C[C@@H]2N2CCC3(CCNC3)C2)cc1 (stereo not given in full)	11 nM		
CS(=O)(=O)c1ccc(O[C@H]2c3cc(F)cc(Cl)c3C[C@@H]2N2CCNCC2)cc1 (racemic)	123 nM		
CC(=O)Nc1cccc(O[C@H]2c3ccccc3C[C@@H]2N2CCCC2)c1	438 nM	9.1 ×10⁻⁶ cm/s	640 nM

Structure (SMILES)	IC50 [1]	Papp at 2 h, 20 µM [2]	IC50 [3]
O=S1(=O)CCCN1c1cccc(O[C@H]2c3ccccc3C[C@@H]2N2CCCC2)c1	1530 nM		
N[C@@H]1CCCN([C@H]2Cc3c(Cl)cc(Cl)cc3[C@@H]2Oc2ccc(-n3ccnc3)cc2)C1	23 nM	1.1 ×10⁻⁶ cm/s	< 300 nM
CS(=O)(=O)c1ccc(O[C@H]2c3cc(Cl)cc(Cl)c3C[C@@H]2N2CCC[C@@H](NCCO)C2)cc1	4 nM		
N#Cc1ccc(O[C@H]2c3ccccc3C[C@@H]2N2CCCC2)cc1	4500 nM		
Cc1nnc(C)n1-c1ccc(O[C@H]2c3ccccc3C[C@@H]2N2CCCC2)cc1	345 nM		
C[C@@H]1CN([C@H]2Cc3c(Cl)cc(Cl)cc3[C@@H]2Oc2ccc(S(C)(=O)=O)cc2)CCN1	20 nM	5.1 ×10⁻⁶ cm/s	
Cc1nnc(C)n1-c1ccc(O[C@H]2c3ccccc3C[C@@H]2N2CCCC2)c(C(F)(F)F)c1	118 nM		
CS(=O)(=O)c1ccc(O[C@H]2c3c(Cl)cc(Cl)cc3C[C@@H]2N2CCNCC2)cc1	135 nM		
CS(=O)(=O)c1ccc(O[C@H]2c3cc(Cl)cc(Cl)c3C[C@@H]2N2CC[C@H](O)C2)cc1	384 nM		
CC(=O)Nc1ccc(O[C@H]2c3ccccc3C[C@@H]2N2CCCC2)cc1	2770 nM		
CS(=O)(=O)c1ccc(O[C@H]2c3cc(Cl)cc(Cl)c3C[C@@H]2N2CCCNCC2)c(Cl)c1	2 nM		
c1ccc2c(c1)C[C@H](N1CCCC1)[C@H]2Oc1ccc(-c2nccs2)cc1	1710 nM		
CS(=O)(=O)c1ccc(O[C@H]2c3cc(Cl)cc(Cl)c3C[C@@H]2N2CCCN(CCO)CC2)cc1	30 nM		
Cc1c(O[C@H]2c3ccccc3C[C@@H]2N2CCCC2)ccc(-n2c(C)nnc2C)c1C	170 nM		
CS(=O)(=O)c1ccc(O[C@H]2c3cc(Cl)cc(Cl)c3C[C@@H]2N2CC[C@H](F)C2)cc1	883 nM		
CS(=O)(=O)c1ccc(O[C@H]2c3cc(F)ccc3C[C@@H]2N2CCNCC2)cc1 (racemic)	3490 nM		
Cc1noc(C)c1-c1ccc(O[C@H]2c3ccccc3C[C@@H]2N2CCCC2)cc1	411 nM		
CS(=O)(=O)c1ccc(O[C@H]2c3cc(Cl)cc(Cl)c3C[C@@H]2N2CCC[C@@H](N)C2)cc1	4 nM		
O=C1OCCN1c1cccc(O[C@H]2c3ccccc3C[C@@H]2N2CCCC2)c1	955 nM		
